Experimental findings from patent US20110086818A1, “METHODS, COMPOSITIONS, AND KITS FOR TREATING PAIN AND PRURITUS” (priority 2008, published 2011) are described below.

The subject of series [1] is voltage-dependent sodium channels. The series can be described thus: whole-cell voltage clamp recordings of sodium current in small (capsaicin-sensitive) DRG neurons. It counts as cell-based, rat. The following applies: for inhibition (decrease) of sodium current: small capsaicin-sensitive DRG neurons, 5 mM QX-314 (5-minute application), 1 μM capsaicin (1-10 minutes), alone or together, steps from −70 mV, n=25. Here is the method:
We recorded current through voltage-dependent sodium channels using whole-cell voltage clamp recordings from adult rat DRG neurons. To select for nociceptors, we recorded from small (24±5 μm; n=25) neurons and tested the neurons for the expression of TRPV1 receptors by a short (1-sec) application of 1 μM capsaicin. In 25/25 of small neurons tested, capsaicin produced a prolonged (10±3 sec) inward current (FIG. 1A, upper panel), consistent with the neurons being nociceptors. Sodium currents were elicited by depolarizing steps from a holding potential of −70 mV.
(§1) Dorsal root ganglia from 6-8 week old Sprague-Dawley rats were removed and placed into Dulbecco's Minimum Essential Medium containing 1% penicillin-streptomycin (Sigma), then treated for 90 minutes with 5 mg/ml collagenase, 1 mg/ml Dispase II (Roche, Indianapolis, Ind.) and for 7 minutes with 0.25% trypsin, followed by addition of 2.5% trypsin inhibitor. Cells were triturated in the presence of DNAase I […] (50 U), centrifuged through 15% BSA (Sigma), resuspended in 1 ml Neurobasal medium (Sigma), 10 μM AraC, NGF (50 ng/ml) and GDNF (2 ng/ml) and plated onto poly-lysine (500 μg/ml) and laminin ([…]) coated 35 mm tissue culture dishes (Becton Dickinson) at 8000-9000 per well. Cultures were incubated at 37° C., 5% carbon dioxide. Recordings were made within 48 hours after plating. Average size of small neurons chosen as likely nociceptors was 23±6 μm (n=50) and that of large neurons was 48±8 μM (n=10).
Whole-cell voltage-clamp or current-clamp recordings were made using an Axopatch 200 A amplifier (Axon Instruments, Union City, Calif.) and patch pipettes with resistances of 1-2 MΩ. For voltage-clamp recordings pipette capacitance was reduced by wrapping the shank by Parafilm or coating the shank with Sylgard (Dow Corning, Midland, Mich.). Cell capacitance was compensated for using the amplifier circuitry, and linear leakage currents subtracted using a P/4 procedure. Series resistance (usually 3-7 MO and always less than 10 MΩ) was compensated by ˜80%. Voltage clamp recordings used solutions designed to isolate sodium currents by blocking potassium and calcium currents and with reduced external sodium to improve voltage clamp. Pipette solution was 110 mM CsCl, 1 mM CaCl2, 2 mM MgCl2, 11 mM EGTA, and 10 mM HEPES, pH adjusted to 7.4 with ˜25 mM CsOH. External solution was 60 mM NaCl, 60 mM choline chloride, 4 mM KCl, 2 mM CaCl2, 1 mM MgCl2, 0.1 mM CdCl2, 15 mM tetraethylammonium chloride, 5 mM 4-aminopyridine, 10 mM glucose, and 10 mM HEPES, pH adjusted to 7.4 with NaOH. No correction was made for the small liquid junction potential (−2.2 mV).
Command protocols were generated and data digitized using a Digidata 1200 A/D interface with pCLAMP 8.2 software (Axon Instruments, Union City, Calif.). […]

For series [2] the test system is unchanged. Briefly: whole-cell voltage clamp recordings of sodium current in large (capsaicin-insensitive) DRG neurons. It counts as cell-based, rat. The following applies: large DRG neurons (>40 μm); 10-minute application; n=10.
Excerpt: To test whether the ability of co-applied capsaicin and QX-314 to inhibit sodium current is selective for cells that express TRPV1 receptors, we also recorded from large DRG neurons (soma diameter >40 μm) (FIG. 1A, right). […] As for small diameter neurons, QX-314 applied alone had little or no effect on sodium current (current increased by 8±4% after a 10-minute application, n=10). Unlike small diameter neurons, capsaicin had no effect on sodium current in large diameter neurons (average increase by 3±2% after a 10-minute application, n=10).
as §1, with “Average size of small neurons chosen as likely nociceptors was 23±6 μm (n=50) and that of large neurons was 48±8 μM (n=10).” left out

The subject of another series is small DRG neurons. Briefly: current clamp recording of action potentials in small nociceptive-like DRG neurons. It counts as cell-based, rat. The following applies: QX-314 5 mM, capsaicin 1 μM.
Series [3] relates to adult rats. The series can be described thus: intraplantar injection, mechanical threshold for paw withdrawal (von Frey hairs). It counts as in vivo, rat. The following applies: QX-314 10 μL of 2%, capsaicin 10 μg/10 μL, capsaicin effect at 15 and 30 minutes. How it is done: (§2) FIG. 3. Intraplantar injection of capsaicin (10 μg/10 μL) together with QX-314 (2%, 10 μL) leads to a prolonged local anesthesia to mechanical (von Frey filaments) and thermal noxious stimuli. […] (*=p<0.05, n=6 for each group). […] Arrow indicates cutoff, and numbers of animals not responding to strongest stimulus is indicated for time points with largest effects. (*=p<0.05, n=6 for each group).
We next examined if the combination of capsaicin and QX-314 can reduce pain behavior in vivo. […] In three animals the paw was insensitive to even the highest value von Frey filament (57 g). The elevated mechanical threshold lasted for about three hours and then gradually returned back to basal levels by four hours (FIG. 3A).
(§3) For intraplantar injections, rats were first habituated to handling and tests performed with the experimenter blind to the treatment. Intraplantar injections of vehicle (20% ethanol, 5% Tween 20 in saline, 10 μL) capsaicin (1 μg/μL), QX-314 (2%) or mixture of capsaicin and QX-314 into the left hindpaw were made and mechanical and thermal sensitivities determined using von Frey hairs and radiant heat respectively.

In series [4] the test system is adult rats. Briefly: intraplantar injection, thermal (radiant heat) response latency. It counts as in vivo, rat. As to conditions: QX-314 at 30 min, capsaicin at 15 and 30 min, combination 2 hours after injection, heat applied for 25 seconds. How it is done:
as §2
Similar effects were seen examining sensitivity to a standardized noxious radiant heat stimulus. […] This effect remained for 4 hours after the injection (FIG. 3B).
as §3

The subject of series [5] is rats. Briefly: sciatic nerve injection, mechanical threshold (von Frey filaments). It counts as in vivo, rat. The following applies: QX-314 0.2%, 100 μL, capsaicin 0.5 μg/μL, for 30 min after injection. How it is done: (§4) Motor effects were scored according to a scale of 0 (no effect; normal gait and limb placement), 1 (limb movement but with abnormal limb placement and movement) or 2 (complete loss of limb movement). […] For co-application of QX-314 and capsaicin into the para-sciatic nerve region, we injected QX-314 first, followed 10 minutes later by capsaicin, with the idea that QX-314 would be present extracellularly and ready to enter TRPV1 channels as soon as they were activated.
(§5) For sciatic nerve injections, animals were first habituated to handling for 10 days. Lidocaine (0.2% or 2%, 100 μL); QX-314 (0.2%, 100 μL) alone; capsaicin (50 μg in 100 μL) alone, or QX-314 followed by capsaicin (10 minutes interval) were injected into the area of sciatic nerve below the hip joint. Mechanical and thermal thresholds were determined using von Frey filaments and radiant heat. […] Walking, climbing, walking on the rod and placing reflex were examined. […] All experiments were done with the experimenter blinded.

Series [6] deals with rats. The series can be described thus: sciatic nerve injection, thermal (radiant heat) response latency. As to conditions: QX-314 0.2%, 100 μL, capsaicin 0.5 μg/μL, for 30 min after injection. It counts as in vivo, rat. Here is the method:
as §4, §5

Series [7] deals with rats. Briefly: sciatic nerve injection, motor function score and placing reflex. Here is the method: as §4, §5
In the next series the target is T1, TRPV1 receptors (Rattus norvegicus, UniProt O35433).
T1 construct: Dorsal root ganglia from 6-8 week old Sprague-Dawley rats were removed; endogenous in cells; host or cells: primary cultured dorsal root ganglion neurons from 6-8 week old Sprague-Dawley rats
The series can be described thus: capsaicin-evoked inward current in DRG neurons (test for expression of TRPV1 receptors). It counts as cell-based. How it is done:
QX-314 (5 mM), capsaicin (1 μM or 500 nM), or their combination was applied using custom-designed multibarrel fast drug delivery system placed about 200-250 μm from the neuron. Solution exchange was complete in less than a second.

In series [8] the test system is adult rats. Briefly: intraplantar injection, spontaneous flinching. It counts as in vivo, rat. As to conditions: first 5 minutes after intraplantar injection; capsaicin 10 μg/10 μL, QX-314 2%.
Series [9] is described as follows: hindpaw injection, acute pain-related response (flinches) and analgesia (FIG. 8). It counts as in vivo. The following applies: injection into the hindpaw, flinches (FIG. 8).
Setting [10] is: small neurons, 1-sec application of 1 μM capsaicin.

T1 sequence (O35433 whole entry): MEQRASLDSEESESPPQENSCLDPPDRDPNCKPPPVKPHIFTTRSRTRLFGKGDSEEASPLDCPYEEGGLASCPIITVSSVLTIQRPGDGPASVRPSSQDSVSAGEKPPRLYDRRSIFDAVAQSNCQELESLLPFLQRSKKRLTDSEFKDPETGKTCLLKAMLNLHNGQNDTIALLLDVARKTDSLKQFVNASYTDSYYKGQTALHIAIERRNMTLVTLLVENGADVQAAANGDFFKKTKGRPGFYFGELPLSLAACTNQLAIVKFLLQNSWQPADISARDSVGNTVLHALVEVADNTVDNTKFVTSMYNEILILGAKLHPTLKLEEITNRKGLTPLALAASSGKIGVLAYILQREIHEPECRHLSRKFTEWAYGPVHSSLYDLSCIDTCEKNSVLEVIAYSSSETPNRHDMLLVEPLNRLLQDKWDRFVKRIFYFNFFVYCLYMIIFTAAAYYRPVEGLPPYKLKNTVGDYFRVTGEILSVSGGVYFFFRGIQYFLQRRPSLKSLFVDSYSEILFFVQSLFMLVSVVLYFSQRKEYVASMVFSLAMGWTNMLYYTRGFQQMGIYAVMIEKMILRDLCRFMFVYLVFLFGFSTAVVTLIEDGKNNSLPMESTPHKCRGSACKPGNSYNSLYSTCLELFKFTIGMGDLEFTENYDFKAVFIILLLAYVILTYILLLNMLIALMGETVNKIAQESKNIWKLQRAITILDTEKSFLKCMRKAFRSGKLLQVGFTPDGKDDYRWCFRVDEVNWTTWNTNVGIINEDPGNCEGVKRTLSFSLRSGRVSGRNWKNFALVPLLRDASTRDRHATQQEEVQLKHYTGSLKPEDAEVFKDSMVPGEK

In the case of `CC[N+](CC)(CC)CC(=O)Nc1c(C)cccc1C` [QX-314], in series [1] (external QX-314 alone), the “effect of external application on sodium channels” value was “no effect”. In [1], the “inhibition (decrease) of sodium current” value is 3±0.5%. Also, the “increase of sodium current” value in [2] came to 8±4%. Besides, the “effect on action potential generation / amplitude” value in the series on small DRG neurons is “had no effect”. For the same molecule, the “effect on mechanical threshold for withdrawal response” value in the series with adult rats [3] is reported as “no significant effect”. For the same molecule, the “effect on thermal response latency (noxious radiant heat)” value with adult rats [4] was “transiently reduced the thermal response latency”. In the series on rats [5], the “effect on mechanical threshold” value is recorded as “no significant effect”. Moreover, the “effect on thermal response latency” value in the series with rats [6] is “no significant effect”. Also, the “effect on motor function” value in the series on rats [7] (rat, in vivo) is on record as “no effect on motor function”.
With `COc1cc(CNC(=O)CCCC/C=C/C(C)C)ccc1O` [capsaicin], the “inhibition (decrease) of sodium current” value in [1] was found to be 31±9%. In addition, in series [2], the “increase of sodium current” value is reported as 3±2%. Moreover, the “inward current in large DRG neurons” value at TRPV1 receptors (large DRG neurons, soma diameter >40 μm, 10 of 10) is on record as “did not elicit an inward current”. Besides, on TRPV1 receptors (setting [10]), the “duration of prolonged inward current” value came to 10 ± 3 s and the “small neurons tested in which an inward current was produced” value is 25/25. Moreover, the “effect on action potential generation / amplitude” value with small DRG neurons is “reduced the action potential amplitude”. Also, the “effect on mechanical threshold for withdrawal response” value in the series on adult rats [3] is recorded as “significantly reduced the mechanical threshold”. The “effect on thermal response latency (noxious radiant heat)” value in the series on adult rats [4] is “reduced”. For the same molecule, the “flinches in 5 min” value with adult rats [8] turned out to be 40±6 flinches. In the series on rats [5], the “effect on mechanical threshold” value was “reduced”. Moreover, the “effect on thermal response latency” value in the series on rats [6] is on record as “reduced”. Moreover, the mean motor score in the series with rats [7] (scale 0-2, sciatic injection, lidocaine 2% at 30 minutes, capsaicin 0.5 μg/μL, 100 μL, QX-314 0.2%, 100 μL followed 10 minutes later by capsaicin) came to 0.7±0.2. Moreover, in [9], the “duration of acute pain-related response following injection” value is “approximately 15 min”.
In the case of `C=CCc1ccc(O)c(OC)c1` [eugenol, 2-methoxy-4-(2-propenyl)phenol], the “inhibition of sodium current” value in series [1] (small dorsal root ganglion neurons, eugenol alone (FIG. 5)) is listed as 10-20%.
For `CCN(CC)CC(=O)Nc1c(C)cccc1C` [lidocaine], in the series with rats [7] (rat, in vivo), the “duration of complete loss of tactile stimulus-evoked placing reflex” value is on record as “at least 30 minutes”; the “effect on motor function” value is on record as “complete paralysis of the lower limb”; the “time to full recovery of sensory and motor deficits” value was at most 45 min.
